Where “and” joins values, the source holds several entries; their conditions need not be identical. Equal entries are not always repeated. Where only a bound is given, the exact number is not on record here.

Broadly, the viability, T/C is the ratio of treated to control. Usually IC50 stands for the concentration that gives 50% inhibition.

The subject of this assay is 922993-354-T-J3-PDC complex spheroids, viability, % test/control. In words: Anticancer human tumor 922993-354-T-J3-PDC patient-derived endometrial carcinoma cell line growth inhibition [CLK]. As to conditions: for viability, T/C: stronger effect = lower value. From the text: A high-throughput screen of multi-cell type tumor spheroids was designed to identify active combinations of […] and targeted small molecules. Complex spheroids include a stromal component modeled by human endothelial cells (HUVEC) and fibroblasts modeled by human mesenchymal stem cells (MSCs). The concentration ranges selected for each drug and investigational agent were based upon clinically achievable concentrations if the clinical Cmax of the agent was known.
Compounds. The drugs and investigational agents: cirtuvivint (SM08502; NSC835563), CC-671 (NSC850746), vemurafenib (NSC761431), tapotoclax (NSC804041), sotorasib (NSC818433), adagrasib (NSC831453), MRTX-1133 (NSC836407), BAY2416964 (NSC825713), copanlisib (NSC816437), inavolisib (NSC800729), abemaciclib (NSC768073), osimertinib (NSC779217), entinostat (NSC756642), eltanexor (KPT-8602, NSC794443), venetoclax (NSC766270), ceralasertib (NSC777638), bortezomib (NSC756655), olaparib (NSC753686), talazoparib (NSC767125), alisertib (NSC759677), peposertib (NSC802822), gemcitabine (NSC613327), 5-fluorouracil (NSC19893), SN-38 (NSC673596), oxaliplatin (NSC266046), paclitaxel (NSC125973), and doxorubicin (NSC123127), were obtained from the National Cancer Institute (NCI) Developmental Therapeutics Program Chemical Repository. The FDA-approved anticancer drug set is available from the Developmental Therapeutics Program at https://dtp.cancer.gov/organization/dscb/obtaining/available plates.htm. […] The stock solutions were prepared in dimethyl sulfoxide (DMSO, Sigma-Aldrich, St. Louis, MO, cat. D2650), except for the platinum complexes which were prepared in saline (Quality Biological, Gaithersburg, MD, cat. 114-055-101), at 800-fold the tested concentration and stored at -70 degrees C prior to their use. All drugs and investigational agents were tested over a range starting from a high concentration at or near the clinical Cmax and decreasing in half-log increments. If the clinical Cmax for an agent had not been determined, the highest concentration tested was 10 microM.
Cell Culture. All cells were maintained in an incubator at 37 degrees C and 5% CO2 with 95% humidity. The PDC lines were cultured according to standard operating procedures established by the NCI PDMR. Briefly, all PDCs were thawed and cultured in Matrigel-coated flasks prepared with a working solution of 1X Ham's F-12 nutrient mix, without supplementation (Invitrogen, Waltham, MA, cat. 11765054), 100 U/mL penicillin-streptomycin (Invitrogen, cat. 15140122), and 2.5% Matrigel (Corning Inc., Corning, NY, cat. 354248) for the first three passages. The 947758-054-R-J2-PDC line was cultured in 6B/Colon 1A media, which includes advanced DMEM/F-12 (Thermo Fisher Scientific, cat. 12634028), 10 mM HEPES (Thermo Fisher Scientific, cat. 15630080), 1X GlutaMAX supplement (Thermo Fisher Scientific, cat. 35050061), 0.1 mg/mL primocin (InvivoGen, cat. ant-pm-2), 10% defined fetal bovine serum, heat inactivated (HyClone Laboratories Inc., cat. SH30070.03HI), 1.25 mM N-Acetyl-L-cysteine (Sigma-Aldrich, cat. A9165), 10 mM nicotinamide (Sigma-Aldrich, cat. N0636), 1X B-27 supplement (Thermo Fisher Scientific, cat. 17504044), 1X N-2 supplement (Thermo Fisher Scientific, cat. 17502048), and 10 microM Y-27632 dihydrochloride (Tocris Bioscience, cat. 1254). The 876862-298-R-J1-PDC was cultured in 6E media, which includes all 6B/Colon 1A media components plus 50% L-WRN conditioned media (ATCC, cat. CRL-3276), 50 ng/mL recombinant human EGF recombinant protein (hEGF; Thermo Fisher Scientific, cat. PHG0311), 10 ng/mL recombinant human fibroblast growth factor 10 (hGFG-10; PeproTech, cat. 100-26), 1 ng/mL recombinant human fibroblast growth factor 2 (hFGF-2; PeproTech, cat. 100-18B), and 1 µM prostaglandin E2 (PGE2; Tocris, cat. 2296). The 227483-062-R1-J1-PDC line was cultured in Panc media, containing all 6E components except hFGF-2, with the addition of 500 nM SB-431542 (Selleckchem, cat. S1067) and 10 nM gastrin (Tocris, cat. 3006). […]
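Further: spheroids exposed to the agents for 7 days before readout.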

As to `C=CC(=O)Nc1cc(Nc2nccc(-c3cn(C)c4ccccc34)n2)c(OC)cc1N(C)CCN(C)C`, the viability, T/C was 93.6% and 122% (compound 0.000949 µM); 92.5% and 98.6% (compound 0.003 µM); 60.9% and 98.1% (compound 0.00949 µM); 97.8% and 85.3% (compound 0.03 µM); 90.1% and 94.2% (compound 0.0949 µM); 72.3% and 86.4% (compound 0.3 µM). The IC50 (curve of compound) is above 300 nM.
For `CC(C)CC(NC(=O)C(Cc1ccccc1)NC(=O)c1cnccn1)B(O)O` (centres undefined), the viability, T/C by setting is: (compound 0.000949 µM) 91.1% and 99.8%; (compound 0.003 µM) 85.1% and 72.4%; (compound 0.00949 µM) 30.7% and 48.4%; (compound 0.03 µM) 2.06% and 11.1%; (compound 0.0949 µM) 0.41% and 2.23%; (compound 0.3 µM) 0.17% and 0.49%. The IC50 (curve of compound) was 6.31 nM and 7.44 nM.
Consider `CCCS(=O)(=O)Nc1ccc(F)c(C(=O)c2c[nH]c3ncc(-c4ccc(Cl)cc4)cc23)c1F`, for which the viability, T/C runs as follows: (compound 0.0316 µM) 113% and 92.8%; (compound 0.1 µM) 79.7% and 76.8%; (compound 0.316 µM) 97.7% and 113%; (compound 1 µM) 111% and 94.1%; (compound 3.16 µM) 65.2% and 95.7%; (compound 10 µM) 59% and 65.5%. Further, the IC50 (curve of compound) was above 10000 nM.
For `CCN1CCN(Cc2ccc(Nc3ncc(F)c(-c4cc(F)c5nc(C)n(C(C)C)c5c4)n3)nc2)CC1`, the viability, T/C is 94.4% and 96.9% (compound 0.00316 µM); 91.2% and 85.8% (compound 0.01 µM); 94.2% and 84.1% (compound 0.0316 µM); 99.8% and 93.6% (compound 0.1 µM); 72% and 73.3% (compound 0.316 µM); 59.6% and 50.1% (compound 1 µM). Further, for the setting “curve of compound”, the IC50 was above 1000 nM.
As for `CCc1c2c(nc3ccc(O)cc13)-c1cc3c(c(=O)n1C2)COC(=O)[C@]3(O)CC`, the viability, T/C is, setting by setting: (compound 0.00316 µM) 84.6% and 97.6%; (compound 0.01 µM) 38% and 69.2%; (compound 0.0316 µM) 12.8% and 21.2%; (compound 0.1 µM) 13.1% and 16%; (compound 0.316 µM) 17% and 25.4%; (compound 1 µM) 22% and 27.1%. Besides, where the note is “curve of compound”, the IC50 was 7.43 nM and 16.1 nM.
For `CNC(=O)c1ccc(Nc2nc(OC3CCCC3)c3c(-c4ccc5nc(C)oc5c4)c[nH]c3n2)c(OC)c1`, the viability, T/C (compound 0.0316 µM) is 106% [middle of 12 runs]; the viability, T/C (compound 0.1 µM) is 107% [middle of 12 runs]; the viability, T/C (compound 1 µM) is 39.3% [middle of 12 runs]; the viability, T/C (compound 3.16 µM) was 34.4% [middle of 12 runs]; the viability, T/C (compound 10 µM) was 33.4% [middle of 12 runs]. In addition, the IC50 (compound alone, run of 09/19/2023) was 557 nM [middle of 12 runs].
In the case of `COC1C=CCC(C)C(C)S(=O)(=O)NC(=O)c2ccc3c(c2)N(CC2CCC21)CC1(CCCc2cc(Cl)ccc21)CO3` (centres undefined), the viability, T/C runs as follows: (compound 0.0316 µM) 99.2% and 106%; (compound 0.1 µM) 99.9% and 97.5%; (compound 0.316 µM) 103% and 106%; (compound 1 µM) 84.5% and 89.9%; (compound 3.16 µM) 68.4% and 84%; (compound 10 µM) 13.7% and 21.5%. Moreover, the IC50 (curve of compound) was 4570 nM and 5820 nM.
For the compound `COc1c(OCCCN2CCOCC2)ccc2c3n(c(=NC(=O)c4cnc(N)nc4)nc12)CCN3`, the viability, T/C is 109% and 111% (compound 0.00316 µM); 89.1% and 90.3% (compound 0.01 µM); 75.1% and 91.2% (compound 0.0316 µM); 54.6% and 68.8% (compound 0.1 µM); 30.3% and 40.4% (compound 0.316 µM); 9.62% and 15.9% (compound 1 µM). In addition, the IC50 (curve of compound) was 118 nM and 226 nM.
Consider `Cn1ncnc1[C@H]1c2n[nH]c(=O)c3cc(F)cc(c23)N[C@@H]1c1ccc(F)cc1`, for which the viability, T/C is, setting by setting: (compound 0.000316 µM) 94.9% and 97.8%; (compound 0.001 µM) 80.7% and 87.4%; (compound 0.00316 µM) 104% and 100%; (compound 0.01 µM) 124% and 103%; (compound 0.0316 µM) 104% and 98.2%; (compound 0.1 µM) 75.3% and 72.6%. The IC50 (curve of compound) was above 100 nM.
Consider `NC(=O)C(=Cn1cnc(-c2cc(C(F)(F)F)cc(C(F)(F)F)c2)n1)c1cncnc1`, for which the viability, T/C (compound 0.00949 µM) is 99% and 121%; the viability, T/C (compound 0.03 µM) was 107% and 106%; the viability, T/C (compound 0.0949 µM) was 64.8% and 96.1%; the viability, T/C (compound 0.3 µM) was 47.6% and 68.7%; the viability, T/C (compound 0.949 µM) was 46.4% and 56.8%; the viability, T/C (compound 3 µM) was 24.8% and 32.5%. In addition, the IC50 (curve of compound) is 187 nM and 1170 nM.

Values taken from PubChem BioAssay AID2060606 (Molecular Pharmacology Branch, DTP, NCI, 2025).
